# Data published in patent publication US20070087988A1, “Hematopoietic progenitor kinase 1 for modulation of an immune response” (New York University, priority 2005, published 2007).
# Entries after “also recorded” stand apart in the source; their conditions may differ.
# Test system: HPK1
# Test: HPK1 immune complex in vitro kinase (IVK) assay, endogenous HPK1 from treated Jurkat cells
# Type: cell-based, human
# Settings: Lck (JCaM1), ZAP-70 (p116), Lat (ANJ-3), SLP-76 (J14) deficient lines, 10 pM PGE2
smiles,measurement,value
"CCCCC[C@H](O)/C=C/[C@H]1[C@H](O)CC(=O)[C@@H]1C/C=C\CCCC(=O)O [PGE2, prostaglandin E2]",HPK1 kinase activity upon PGE2 stimulation in signaling-mutant Jurkat lines,did not interfere with the ability of HPK1 to respond; also recorded: all Jurkat cell lines could activate HPK1 kinase activity
